Measured values: ChEMBL document CHEMBL3864191 (ACS Med Chem Lett, 2016)
Several values for one entry are separate records, joined by “and”; a condition that tells them apart may be missing. Equal values may be shown once. Activity calls are given as the source filed them. The calls are words filed in the database; no cut-off is given here.

Assays:
[1] = Cytotoxicity against human DU145 cells assessed as reduction in cell viability after 72 hrs by MTT assay; format: functional, cell-based, DU-145
[2] = Cytotoxicity against mouse CT26 cells assessed as reduction in cell viability after 72 hrs by MTT assay; format: functional, cell-based
[3] = target: Induced myeloid leukemia cell differentiation protein Mcl-1 (Homo sapiens, UniProt Q07820); test: Inhibition of FAM-Bid binding to human MCL1 expressed in Escherichia coli BL21 after 30 mins by fluorescence polarization assay
Sequence of Induced myeloid leukemia cell differentiation protein Mcl-1 (Q07820 whole entry): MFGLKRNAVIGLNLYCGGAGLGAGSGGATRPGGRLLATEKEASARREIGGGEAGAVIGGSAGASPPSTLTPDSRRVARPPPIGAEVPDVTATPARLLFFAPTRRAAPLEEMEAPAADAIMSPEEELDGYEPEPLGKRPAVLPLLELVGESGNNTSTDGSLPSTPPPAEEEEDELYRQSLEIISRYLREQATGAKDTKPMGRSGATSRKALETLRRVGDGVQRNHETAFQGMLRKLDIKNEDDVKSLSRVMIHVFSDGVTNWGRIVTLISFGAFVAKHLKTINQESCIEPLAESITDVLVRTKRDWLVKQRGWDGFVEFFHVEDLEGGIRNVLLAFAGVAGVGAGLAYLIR

[4] = target: Apoptosis regulator Bcl-2 (Homo sapiens, UniProt P10415); test: Inhibition of FAM-Bid binding to human BCL2 expressed in Escherichia coli BL21 after 30 mins by fluorescence polarization assay
Sequence of Apoptosis regulator Bcl-2 (P10415 whole entry): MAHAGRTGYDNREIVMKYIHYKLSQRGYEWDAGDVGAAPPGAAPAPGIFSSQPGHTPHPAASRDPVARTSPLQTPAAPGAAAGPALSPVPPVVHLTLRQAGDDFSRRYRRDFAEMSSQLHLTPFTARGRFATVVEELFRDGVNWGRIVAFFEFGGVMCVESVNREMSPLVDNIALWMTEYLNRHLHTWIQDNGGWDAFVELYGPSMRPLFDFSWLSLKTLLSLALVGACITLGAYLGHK

MCF7 = test: Potency index, ratio of (-)-gossypol IC50 to compound IC50 for human MCF7 cells; format: functional
[5] = Cytotoxicity against human leukemia cells assessed as cell growth inhibition after 48 hrs by SRB assay; format: functional
[6] = Cytotoxicity against human non-small cell lung cancer cells assessed as cell growth inhibition after 48 hrs by SRB assay; format: functional; conditions: Cancer cell lines
[7] = Cytotoxicity against human colon cancer cells assessed as cell growth inhibition after 48 hrs by SRB assay; format: functional; conditions: Cancer cell lines
[8] = Cytotoxicity against human CNS cancer cells assessed as cell growth inhibition after 48 hrs by SRB assay; format: functional; conditions: Cancer cell lines
[9] = Cytotoxicity against human melanoma cells assessed as cell growth inhibition after 48 hrs by SRB assay; format: functional
[10] = Cytotoxicity against human ovarian cancer cells assessed as cell growth inhibition after 48 hrs by SRB assay; format: functional; conditions: Cancer cell lines
[11] = Cytotoxicity against human renal cancer cells assessed as cell growth inhibition after 48 hrs by SRB assay; format: functional; conditions: Cancer cell lines
[12] = Cytotoxicity against human prostate cancer cells assessed as cell growth inhibition after 48 hrs by SRB assay; format: functional; conditions: Cancer cell lines
[13] = Cytotoxicity against human breast cancer cells assessed as cell growth inhibition after 48 hrs by SRB assay; format: functional; conditions: Cancer cell lines
[14] = Cytotoxicity against HEK293T cells assessed as reduction in cell viability at 0.33 to 100 uM after 72 hrs by MTT assay; format: toxicity, cell-based; conditions: human, hek-293t
[15] = Cytotoxicity against African green monkey Vero cells assessed as reduction in cell viability at 0.33 to 100 uM after 72 hrs by MTT assay; format: toxicity, cell-based; conditions: chlorocebus sabaeus
[16] = Cytotoxicity against human NCI60 cells assessed as cell growth inhibition after 48 hrs by SRB assay; format: functional; conditions: NCI60, 48 h
[17] = Stability in human liver microsomes at 4.75 uM preincubated for 5 mins followed by NADPH addition after 60 mins by HPLC analysis; format: ADME; conditions: 1 h
[18] = Stability in rat liver microsomes at 4.75 uM preincubated for 5 mins followed by NADPH addition after 60 mins by HPLC analysis; format: ADME; conditions: 1 h
[19] = Chemical stability of compound in pH 1 to 10 Hcl solution after 3 hrs by HPLC analysis; format: physicochemical; conditions: buffer, pH 1, 3 h
cells [20] = conditions: Homo sapiens, MCF7, 72 h
Description: Cytotoxicity against human MCF7 cells assessed as reduction in cell viability after 72 hrs by MTT assay

cells [21] = conditions: Homo sapiens, HCT-116, 72 h
Description: Cytotoxicity against human HCT116 cells assessed as reduction in cell viability after 72 hrs by MTT assay

CT26 = test: Potency index, ratio of (-)-gossypol IC50 to compound IC50 for mouse CT26 cells; format: functional
HOP-92 = test: Cytotoxicity against human HOP92 cells assessed as cell growth inhibition after 48 hrs by SRB assay; format: functional, cell-based
SNB-19 = test: Cytotoxicity against human SNB19 cells assessed as cell growth inhibition after 48 hrs by SRB assay; format: functional, cell-based
U-251 = test: Cytotoxicity against human U251 cells assessed as cell growth inhibition after 48 hrs by SRB assay; format: functional, cell-based
RXF 393 = test: Cytotoxicity against human RXF393 cells assessed as cell growth inhibition after 48 hrs by SRB assay; format: functional, cell-based
NCI60 = test: Cytotoxicity against human NCI60 cells assessed as cell growth inhibition up to 10 uM after 48 hrs by SRB assay; format: functional, cell-based

Row | IC50 [3] | Ki [3] | IC50 [4] | Ki [4] | IC50 (cells [20]) | IC50 (cells [21]) | SMILES | IC50 ([1]; Homo sapiens, DU-145, 72 h) | IC50 ([2]; Mus musculus, CT26, 72 h) | GI50 [5] | GI50 [6] | GI50 [7] | GI50 [8] | GI50 [9] | GI50 [10] | GI50 [11] | GI50 [12] | GI50 [13] | Activity [14] | Activity [15] | GI50 [16] | further results
1 | 947 nM | 180 nM | 825 nM | 341 nM | 4390 nM | 2750 nM | COC(=O)CCCN/C=C1\C(=O)C(O)=C(C(C)C)c2cc(C)c(-c3c(C)cc4c(c3O)/C(=C/NCCCC(=O)OC)C(=O)C(O)=C4C(C)C)c(O)c21 (stereo in doubt; 16) | 2390 nM | 8390 nM | 560 nM | 480 nM | 460 nM | 600 nM | 990 nM | 590 nM | 820 nM | 410 nM | 740 nM | Non-Toxic | Non-Toxic | 100 to 1700 nM | Ratio IC50 (MCF7): 12; Stability [17]: Stable; Stability [18]: Stable; Stability [19]: Stable
2 | – | – | – | – | 11500 nM | 17300 nM | Cc1cc2c(c(O)c1-c1c(C)cc3c(c1O)/C(=C/NCCCCCCC(=O)O)C(=O)C(O)=C3C(C)C)/C(=C/NCCCCCCC(=O)O)C(=O)C(O)=C2C(C)C | 19100 nM | 2080 nM | – | – | – | – | – | – | – | – | – | Non-Toxic | Non-Toxic | – | Ratio IC50 (CT26): 11
3 | 740 nM | 139 nM | 483 nM | 182 nM | 8220 nM | 3380 nM | COC(=O)CCCCN/C=C1\C(=O)C(O)=C(C(C)C)c2cc(C)c(-c3c(C)cc4c(c3O)/C(=C/NCCCCC(=O)OC)C(=O)C(O)=C4C(C)C)c(O)c21 | 7360 nM | 16600 nM | 810 nM | 1050 nM | 1000 nM | 1270 nM | 1420 nM | 1260 nM | 1140 nM | 1090 nM | 1080 nM | Non-Toxic | Non-Toxic | – | growth inhibition (GI) (HOP-92): Active; growth inhibition (GI) (SNB-19): Active; growth inhibition (GI) (U-251): Active; growth inhibition (GI) (RXF 393): Active; growth inhibition (GI) (NCI60): Active
4 | > 4000 nM | > 780 nM | – | – | – | – | CC1(C)CCC(CN2CCN(c3ccc(C(=O)NS(=O)(=O)c4ccc(NCC5CCOCC5)c([N+](=O)[O-])c4)c(Oc4cnc5[nH]ccc5c4)c3)CC2)=C(c2ccc(Cl)cc2)C1 [VENETOCLAX] | – | – | 2110 nM | 2700 nM | 2850 nM | 3350 nM | 1750 nM | 3330 nM | 2600 nM | 3510 nM | 2770 nM | – | – | 200 to 5100 nM | –

Row | SMILES | IC50 [3] | Ki [3] | IC50 [4] | Ki [4] | IC50 (cells [20]) | IC50 (cells [21]) | IC50 ([1]; Homo sapiens, DU-145, 72 h) | IC50 ([2]; Mus musculus, CT26, 72 h) | GI50 [5] | GI50 [6] | GI50 [7] | GI50 [8] | GI50 [9] | GI50 [10] | GI50 [11] | GI50 [12] | GI50 [13] | Activity [14] | Activity [15] | GI50 [16] | further results
5 | Cc1cc2c(C(C)C)c(O)c(O)c(C=O)c2c(O)c1-c1c(C)cc2c(C(C)C)c(O)c(O)c(C=O)c2c1O [GOSSYPOL] | 856 nM | 162 nM | – | – | 54000 nM | 3590 nM | – | – | 2470 nM | 2850 nM | 3190 nM | 2970 nM | 3220 nM | 3500 nM | 3160 nM | – | – | Toxic | Toxic | 800 to 5100 nM | IC50 ([1]; du-145): 7970 nM and 19200 nM and 7930 nM; IC50 ([2]; ct26): 23200 nM and 61900 nM and 46800 nM
